Experimental data taken from patent publication US20160175249A1, “Liposomes Containing Oligopeptide Fragments of Myelin Basic Protein, a Pharmaceutical Composition and a Method for Treatment of Multiple Sclerosis” (LIPOXEN TECHNOLOGIES LIMITED, priority 2009, published 2016).
Entries after “also recorded” stand apart in the source; their conditions may differ.

Experiments:
EAE-induced DA rats = experiment: EAE-induced DA rat model, paralysis score and mortality (DA-EAE-28-02, Example 13); format: in vivo; conditions: 54 EAE induced DA rats; daily s.c. injection, 6 total; deaths/N
Procedure: Each of the eight MBP peptide formulations were provided as a lyophilized powder and stored at 4° C. Rehydration of each formulation with water for injection was done daily according to Table 10. MBP peptide formulations were re-suspended in water for injection (Cure Medical) and copaxone (Teva LTD) was diluted with saline to a final concentration of 450 μg/mL. Each subject animal was administered the test formulation for 6 consecutive days by subcutaneous injection.
8-9 week old Dark Agouti (DA) female rats (Harlan Laboratories, Inc.), weighing between 110 and 145 grams were used as the test subjects. The health status of the animals used in this study was examined on arrival. Only animals in good health were acclimatized to laboratory conditions and were used in the study. Animals were provided food ad libitum and free access to drinking water. […]
The rats were evaluated up daily starting 24 hours after immunization. […]
9-11 days post EAE induction, 54 animals were divided to 10 groups (5-6 rats in each), and blood was collected from 2 rats of each group before the initiation of the treatment. […] The animals were maintained and evaluated until day 28th post EAE-induction. […]
Animals were observed individually and clinical signs were recorded once daily during all study periods. […] The body weight of each animals was determined daily during all study periods. […]

[1] = tested on: experimental autoimmune encephalomyelitis (EAE) in DA rats; experiment: EAE in DA rats treated with MBP peptides in mannosylated SUV liposomes (Example 10); format: in vivo
Procedure: All animal studies were carried out in animal facilities of Assaf Harofeh Medical Center (Zerifin, Israel) using standard approved practices for animal care. Induction of EAE was performed in 8-9 weeks Dark Agouti (DA) female rats. Briefly, rats were injected intradermally at the base of the tail with a total volume of 200 μl of inoculum, containing […] of MBP(63-81) (ANASPEC), in saline mixed (1:1) with CFA, (incomplete Freund's adjuvant (IFA), Sigma), and 1 mg MT (strain H37 RA; Difco Laboratories, Detroit, Mich.). Animals developing symptoms of MS were included to the study. Rats were treated with different liposomes formulations (Table 3), copaxone, or placebo (vehicle) under similar conditions for 6 days. All formulations were administrated by one subcutaneous injection per day. Animals were followed up till day 28th post EAE induction. Clinical signs score was performed daily during all study periods. Score gradation was the following: 0—Normal 1—tail weakness, 2—hind leg weakness or paralysis, 3—hind leg paralysis, dragging hind limbs, 4—complete paralysis, unable to move, 5—death.
Liposomes were assembled from a mixture of egg phosphatidylcholine (PC) and one molar percent mannosylated DOG (ManDOG) (Durova OM, supra). Assembly of SUV liposomes was performed as illustrated in FIG. 3: (i) formation of irregular lipid layers during evaporation of organic solvent, followed by re-hydration leading to the multi-layer multilamellar vesicle (MLV) liposomes formation; (ii) high-pressure homogenization resulting in formation of empty SUV; (iii) freeze drying of SUV liposomes with peptides—at this stage peptides are located between collapsed SUV liposomes; and (iv) encapsulation of peptides during second re-hydration into the SUV liposomes with an average diameter of approximately 60-100 nm, containing 1.0% mannose residues on their surface. Four formulations were used for this study: each B cell epitope MBP peptide (MBP1, MBP2, and MBP3) individually and a 1:1:1 mixture (by mass) of all three peptides.
Small unilamellar vesicles (SUV) were prepared from egg phosphatidylcholine (PC) and mannosylated DOG (Espuelas S. et al., Synthesis of an amphiphilic tetraantennary mannosyl conjugate and incorporation into liposome carriers, 2003 Bioorg Med Chem Lett., August 4; 13(15):2557-60, the contents of which are hereby incorporated by reference in their entirety for all purposes) (1:100 molar ratio) by high pressure homogenization (Durova OM, supra). Briefly, lipid mixture (100 mg/ml) in CHCl3 was dried under vacuum, further re-suspended in Milli-Q water to a final lipid concentration 50 mg/ml, followed by high-pressure homogenization (20,000 psi). Resulting SUV were mixed with peptides (lipid to peptide ratio 330:1) together with excess sugar (lactose to lipid ratio 3:1) with subsequent freeze-drying. Following rehydration under controlled conditions, the resulting SUV liposomes were washed by centrifugation to remove non-incorporated materials. The washed pellets were re-suspended in PBS to the required dose volume. Peptide incorporation was estimated on the basis of reversed-phase HPLC using linear gradient of acetonitrile applied on C18 column. The z-average diameter and zeta potential of liposomes were measured on a Brookhaven ZetaPlus zetasizer at 25° C. by diluting […] of the dispersion to the required volume with 1 mM PBS or appropriate media.
To test the therapeutic potential of the four formulations, DA rates presenting with induced EAE were subcutaneously injected with one of the four mannosylated liposomal formulations, copaxone (positive control), free (un-encapsulated) MBPI peptide (negative control), and empty mannosylated liposomes (vehicle control; Table 3).
Treatment of each rat was initiated at the first sign of EAE clinical manifestation. […]

Substance: glatiramer acetate [copaxone]
- Mortality Rate (EAE-induced DA rats): 1/5
- mean disease score course (FIG. 4) ([1]; 6 daily s.c. injections from first clinical sign): EAE amelioration rate similar to treatment with the MBP1/2/3 SUV formulation; also recorded: did not fully recover from EAE after the initial attack
- Mortality ([1]; one s.c. injection per day, 6 injections, deaths/N): 0/12
- Median Cumulative Disease Score ([1]; one s.c. injection per day, 6 injections, doses per Table 3): 18.5
- Median Maximal Disease Score (IQR) ([1]; one s.c. injection per day, 6 injections, doses per Table 3, score 0-5): 2 (1.25)^1
